{
  "source": "patent US20130058930A1",
  "about": "(ANTARES PHARMA, INC., priority 2011, published 2013)",
  "key": {"[1]": {"conditions": "cited from earlier work; for average mean serum concentration: pediatric patients with juvenile rheumatoid arthritis"}, "[2]": {"assay": "Three-period crossover relative bioavailability study of methotrexate injectable solutions (Vibex device SC vs needle and syringe SC and IM)", "format": "in vivo, human", "conditions": "for AUC(0-inf) / Tmax / AUC(0-t) / Cmax / half-life: human, plasma, sc, subcutaneous with Vibex device", "experimental": "This was a randomized, open-label, 3-way crossover study involving 36 subjects. During the screening period, 1 of 4 MTX dose groups (10 mg, 15 mg, 20 mg, or 25 mg) were selected by the investigator for each subject based on the subject's current MTX dose at the time of enrollment and disease status (controlled RA vs. uncontrolled RA). […] One of six treatment sequences was possible as determined by the randomization schedule.\nA total of approximately 200 ml blood was obtained from each subject over the course of the study.\nImmediately following collection of each sample, each tube was gently inverted and placed in ice. Within 30 minutes of sample collection, the tubes were centrifuged at about 2000×G for 15 minutes at approximately 4° C. in order to separate the cells from the plasma. No aids for separation were used. The plasma was transferred with clean pipettes and placed in two polypropylene storage tubes in equal volumes. The storage tubes were labeled with the following information: protocol number, subject number, period number, relative time of sample, and analyte. The label was taped with clear tape to assure adherence of the label. The storage tubes were placed in a freezer at […] or below until they analyzed.\nBriefly, in an ice water bath, 100 μL of the human K2EDTA plasma sample was placed in a 2-ml centrifuge tube. 10 μL of working standard solution and 10 μL of internal standard were added to the tubes. Afterwards, […] of 30% formic acid in water was added to the tubes and 0.2 ml of cold precipitation solution (acetonitrile) was added, vortexed and centrifuged. The supernatant was transferred to a 96-well plate for LC/MS/MS analysis. A volume of approximately 5 μL of the sample was injected into an LC/MS/MS system. The LC/MS/MS analysis was carried out with a Sciex API-4000 mass spectrometer coupled with a Shimadzu LC system. […] Calibration curves and quality control samples were included in each run. The ranges of the assay for both analyses were from 1 ng/ml to 1000 ng/ml, and the limit of quantification for both analyses was 1 ng/ml.\nConcentration values that were reported as below the limit of quantification (BLQ) were treated as 0 for computing mean concentrations and in the concentration-time graphs. […] Concentrations in plasma were used as reported; but measurable concentrations observed after obtaining a BLQ result were excluded from analysis.\nThe Linear Up Log Down method (equivalent to the Linear Up/Log Down option in WinNonlin® Professional) was used in the computation of AUCs. The linear trapezoidal method was employed for any area where the concentration data was increasing (or constant) and the logarithmic trapezoidal method for any area where the concentration data was decreasing. Interpolation of concentration values was conducted using the linear interpolation rule for any time point surrounded by points of increasing (or constant) concentrations and the logarithmic interpolation rule for any time point surrounded by points of decreasing concentrations.\nPharmacokinetic parameters were calculated from the individual concentrations of MTX using noncompartmental methods. […] Secondary PK parameters calculated for each treatment were the following: time of maximum concentration (t . . . ), half-life (tin), Lambda z, and percent of area under the curve extrapolated.\nComparisons among treatments were evaluated by a mixed model analysis of the log-transformed, dose-normalized values of Cmax, AUC(0-t), and AUC(0-inf) with sequence, treatment, and treatment period as fixed effects and subject nested within sequence as a random effect. Using these models, the least-squares (LS) mean for the above PK parameters of each treatment were determined. The differences in LS means among treatments and the 90% confidence intervals (CIs) for the differences in the log-scale LS means among treatment were also obtained."}},
  "note": "Read-outs that look alike come from different tables or passages of the source.",
  "data": [
    {"smiles": "CN(Cc1cnc2nc(N)nc(N)c2n1)c1ccc(C(=O)N[C@@H](CCC(=O)O)C(=O)O)cc1", "note": "[methotrexate, N-[4-[[(2,4-diamino-6-pteridinyl)methyl]methylamino]benzoyl]-L-glutamic acid]", "values": [
      {"measurement": "initial average distribution volume", "setting": "[1]; after intravenous administration", "value": "about 0.18 L/Kg"},
      {"measurement": "absorption from parenteral routes of injection", "setting": "[1]; in vivo", "value": "completely absorbed"},
      {"measurement": "average mean serum concentration", "setting": "[1]; at about 1 hour", "value": "about 0.59 μM"},
      {"measurement": "average mean serum concentration", "setting": "[1]; at about 2 hours", "value": "about 0.44 μM"},
      {"measurement": "average mean serum concentration", "setting": "[1]; at about 3 hours", "value": "about 0.29 μM"},
      {"measurement": "AUC(0-inf)", "setting": "[2]; 10 mg, 10 mg single dose", "value": "~1160", "unit": "ng·h/mL"},
      {"measurement": "Tmax", "setting": "[2]; 10 mg, 10 mg single dose", "value": 1.33, "unit": "h"},
      {"measurement": "AUC(0-t)", "setting": "[2]; 10 mg, 10 mg single dose, read-out: AUC(0-24)", "value": "~1150", "unit": "ng·h/mL"},
      {"measurement": "AUC(0-t)", "setting": "[2]; 10 mg, 10 mg single dose, read-out: AUC(0-t)", "value": "~1140", "unit": "ng·h/mL"},
      {"measurement": "Cmax", "setting": "[2]; 10 mg, 10 mg single dose, subjects with rheumatoid arthritis", "value": "~213", "unit": "ng/mL"},
      {"measurement": "AUC(0-inf)", "setting": "[2]; 15 mg, 15 mg single dose", "value": "~1980", "unit": "ng·h/mL"},
      {"measurement": "Cmax", "setting": "[2]; 15 mg, 15 mg single dose", "value": "~356", "unit": "ng/mL"},
      {"measurement": "Tmax", "setting": "[2]; 15 mg, 15 mg single dose", "value": "~1.25", "unit": "h"},
      {"measurement": "half-life", "setting": "[2]; 15 mg, 15 mg single dose", "value": "~3.68", "unit": "h"},
      {"measurement": "AUC(0-t)", "setting": "[2]; 15 mg, 15 mg single dose, read-out: AUC(0-24)", "value": "~1950", "unit": "ng·h/mL"},
      {"measurement": "AUC(0-t)", "setting": "[2]; 15 mg, 15 mg single dose, read-out: AUC(0-t)", "value": "~1940", "unit": "ng·h/mL"},
      {"measurement": "AUC(0-inf)", "setting": "[2]; 20 mg, 20 mg single dose", "value": "~2220", "unit": "ng·h/mL"},
      {"measurement": "Cmax", "setting": "[2]; 20 mg, 20 mg single dose", "value": "~417", "unit": "ng/mL"},
      {"measurement": "Tmax", "setting": "[2]; 20 mg, 20 mg single dose", "value": "~1.17", "unit": "h"},
      {"measurement": "half-life", "setting": "[2]; 20 mg, 20 mg single dose", "value": "~3.58", "unit": "h"},
      {"measurement": "AUC(0-t)", "setting": "[2]; 20 mg, 20 mg single dose, read-out: AUC(0-24)", "value": "~2190", "unit": "ng·h/mL"},
      {"measurement": "AUC(0-t)", "setting": "[2]; 20 mg, 20 mg single dose, read-out: AUC(0-t)", "value": "~2190", "unit": "ng·h/mL"},
      {"measurement": "AUC(0-inf)", "setting": "[2]; 25 mg, 25 mg single dose", "value": "~2840", "unit": "ng·h/mL"},
      {"measurement": "Cmax", "setting": "[2]; 25 mg, 25 mg single dose", "value": "~491", "unit": "ng/mL"},
      {"measurement": "Tmax", "setting": "[2]; 25 mg, 25 mg single dose", "value": "~1.23", "unit": "h"},
      {"measurement": "half-life", "setting": "[2]; 25 mg, 25 mg single dose", "value": "~3.78", "unit": "h"},
      {"measurement": "AUC(0-t)", "setting": "[2]; 25 mg, 25 mg single dose, read-out: AUC(0-24)", "value": "~2800", "unit": "ng·h/mL"},
      {"measurement": "AUC(0-t)", "setting": "[2]; 25 mg, 25 mg single dose, read-out: AUC(0-t)", "value": "~2800", "unit": "ng·h/mL"},
      {"measurement": "dose proportionality of observed plasma levels", "setting": "[2]; single-dose administration, 10 mg to 25 mg dose range", "value": "increase linearly in a dose-proportionate manner"}
    ]}
  ]
}
